{"source": "ChEMBL document CHEMBL6127063", "about": "“N-substituted-4-(pyridin-4-ylalkyl)piperazine-1-carboxamides and related compounds as Leishmania CYP51 and CYP5122A1 inhibitors” (Bioorg Med Chem, 2024)", "key": {"Leishmania donovani [1]": {"tested_on": "Leishmania donovani", "test": "Antileishmanial activity against Leishmania donovani LV82 promastigotes assessed as inhibition of parasite proliferation", "assay_type": "functional, organism-based"}, "Leishmania major [2]": {"tested_on": "Leishmania major", "test": "Effect on Zymosterol level in Leishmania major LV39 promastigotes assessed as fold change at 17 uM incubated for 48 hrs by LC-MS/MS analysis", "assay_type": "functional"}, "Leishmania major [3]": {"tested_on": "Leishmania major", "test": "Effect on Ergosterol level in Leishmania major LV39 promastigotes assessed as fold change at 17 uM incubated for 48 hrs by LC-MS/MS analysis", "assay_type": "functional"}, "Leishmania major [4]": {"tested_on": "Leishmania major", "test": "Effect on 4-CH2OH-LS sterol level in Leishmania major LV39 promastigotes assessed as fold change at 17 uM incubated for 48 hrs by LC-MS/MS analysis", "assay_type": "functional"}, "Leishmania major [5]": {"tested_on": "Leishmania major", "test": "Effect on Episterol level in Leishmania major LV39 promastigotes assessed as fold change at 17 uM incubated for 48 hrs by LC-MS/MS analysis", "assay_type": "functional"}, "Leishmania major [6]": {"tested_on": "Leishmania major", "test": "Effect on lanosterol level in Leishmania major LV39 promastigotes assessed as fold change at 17 uM incubated for 48 hrs by LC-MS/MS analysis", "assay_type": "functional"}, "Leishmania major [7]": {"tested_on": "Leishmania major", "test": "Effect on 5-Dehydroepisterol level in Leishmania major LV39 promastigotes assessed as fold change at 17 uM incubated for 48 hrs by LC-MS/MS analysis", "assay_type": "functional"}, "Leishmania major [8]": {"tested_on": "Leishmania major", "test": "Effect on Cholesterol level in Leishmania major LV39 promastigotes assessed as fold change at 17 uM incubated for 48 hrs by LC-MS/MS analysis", "assay_type": "functional"}, "Leishmania major [9]": {"tested_on": "Leishmania major", "test": "Effect on 4-Methylzymosterol level in Leishmania major LV39 promastigotes assessed as fold change at 17 uM incubated for 48 hrs by LC-MS/MS analysis", "assay_type": "functional"}, "Leishmania major [10]": {"tested_on": "Leishmania major", "test": "Effect on Ergosta-5,7-dienol level in Leishmania major LV39 promastigotes assessed as fold change at 17 uM incubated for 48 hrs by LC-MS/MS analysis", "assay_type": "functional"}, "Leishmania major [11]": {"tested_on": "Leishmania major", "test": "Effect on 4,14-Dimethylzymosterol level in Leishmania major LV39 promastigotes assessed as fold change at 17 uM incubated for 48 hrs by LC-MS/MS analysis", "assay_type": "functional"}, "Leishmania major [12]": {"tested_on": "Leishmania major", "test": "Effect on 14-methylzymosterol level in Leishmania major LV39 promastigotes assessed as fold change at 17 uM incubated for 48 hrs by LC-MS/MS analysis", "assay_type": "functional"}, "Leishmania major [13]": {"tested_on": "Leishmania major", "test": "Effect on 7-Dehydrodesmosterol level in Leishmania major LV39 promastigotes assessed as fold change at 17 uM incubated for 48 hrs by LC-MS/MS analysis", "assay_type": "functional"}, "Leishmania major [14]": {"tested_on": "Leishmania major", "test": "Effect on Cholesta-7,24-dienol level in Leishmania major LV39 promastigotes assessed as fold change at 17 uM incubated for 48 hrs by LC-MS/MS analysis", "assay_type": "functional"}, "Leishmania major [15]": {"tested_on": "Leishmania major", "test": "Effect on Fecosterol level in Leishmania major LV39 promastigotes assessed as fold change at 17 uM incubated for 48 hrs by LC-MS/MS analysis", "assay_type": "functional"}, "Leishmania major [16]": {"tested_on": "Leishmania major", "test": "Effect on Ergostatetraenol level in Leishmania major LV39 promastigotes assessed as fold change at 17 uM incubated for 48 hrs by LC-MS/MS analysis", "assay_type": "functional"}, "Leishmania donovani [17]": {"tested_on": "Leishmania donovani", "test": "Antileishmanial activity against Leishmania donovani promastigotes infected in mouse J774 cells assessed as inhibition of parasite proliferation", "assay_type": "functional, organism-based"}, "Leishmania donovani [18]": {"tested_on": "Leishmania donovani", "test": "Antileishmanial activity against Leishmania donovani overexpressing CYP5122A1 at 1.2 to […]", "assay_type": "functional, organism-based", "details": "dose 1.2-3.7 µM"}, "[19]": {"test": "Inhibition of full length his-tagged recombinant Leishmania donovani CYP51-32c"}}, "note": "The source made the active and inactive calls. The rule behind the calls is not given here."}
{"smiles": "COc1cccc(NC(=O)N2CCN(Cc3ccncc3)CC2)c1", "values": [{"measurement": "EC50", "setting": "Leishmania donovani [1]", "result": "> 100", "unit": "µM"}]}
{"smiles": "CC(C)Oc1cccc(NC(=O)N2CCN(Cc3ccncc3)CC2)c1", "values": [{"measurement": "EC50", "setting": "Leishmania donovani [1]", "result": "> 50", "unit": "µM"}]}
{"smiles": "O=C(Nc1ccc(OCc2cc(C(F)(F)F)cc(C(F)(F)F)c2)cc1)N1CCN(CCn2ccnc2)CC1", "values": [{"measurement": "fold change (FC)", "setting": "Leishmania major [2]", "result": 3.4}, {"measurement": "fold change (FC)", "setting": "Leishmania major [3]", "result": 0.42}, {"measurement": "fold change (FC)", "setting": "Leishmania major [4]", "result": 1.6}, {"measurement": "fold change (FC)", "setting": "Leishmania major [5]", "result": 3.2}, {"measurement": "fold change (FC)", "setting": "Leishmania major [6]", "result": 31}, {"measurement": "fold change (FC)", "setting": "Leishmania major [7]", "result": 0.69}, {"measurement": "fold change (FC)", "setting": "Leishmania major [8]", "result": 1.9}, {"measurement": "fold change (FC)", "setting": "Leishmania major [9]", "result": 3.2}, {"measurement": "fold change (FC)", "setting": "Leishmania major [10]", "result": 0.16}, {"measurement": "fold change (FC)", "setting": "Leishmania major [11]", "result": 1}, {"measurement": "fold change (FC)", "setting": "Leishmania major [12]", "result": 0.48}, {"measurement": "fold change (FC)", "setting": "Leishmania major [13]", "result": 0.95}, {"measurement": "fold change (FC)", "setting": "Leishmania major [14]", "result": 3.3}, {"measurement": "fold change (FC)", "setting": "Leishmania major [15]", "result": 3.2}, {"measurement": "fold change (FC)", "setting": "Leishmania major [16]", "result": 2.4}]}
{"smiles": "O=C(Nc1ccc(OCc2cc(C(F)(F)F)cc(C(F)(F)F)c2)cc1)N1CCN(CCn2cncn2)CC1", "values": [{"measurement": "EC50", "setting": "Leishmania donovani [1]", "result": "> 50", "unit": "µM"}, {"measurement": "EC50", "setting": "Leishmania donovani [17]", "result": "> 50", "unit": "µM"}]}
{"smiles": "O=C(Nc1cccc(F)c1)N1CCN(Cc2ccncc2)CC1", "values": [{"measurement": "EC50", "setting": "Leishmania donovani [1]", "result": "> 100", "unit": "µM"}]}
{"smiles": "O=C(Nc1ccccc1)N1CCN(Cc2ccncc2)CC1", "values": [{"measurement": "EC50", "setting": "Leishmania donovani [1]", "result": "> 100", "unit": "µM"}]}
{"smiles": "Cc1ccccc1NC(=O)N1CCN(Cc2ccncc2)CC1", "values": [{"measurement": "EC50", "setting": "Leishmania donovani [1]", "result": "> 100", "unit": "µM"}]}
{"smiles": "O=C(Nc1ccc(C(F)(F)F)cc1)N1CCN(Cc2ccncc2)CC1", "values": [{"measurement": "EC50", "setting": "Leishmania donovani [1]", "result": "> 50", "unit": "µM"}]}
{"smiles": "O=C(Nc1ccc(OCc2cc(C(F)(F)F)cc(C(F)(F)F)c2)cc1)N1CCN(CCc2ccncc2)CC1", "values": [{"measurement": "Activity", "setting": "Leishmania donovani [18]", "result": "Active"}]}
{"smiles": "O=C(Nc1ccc(OCc2cc(C(F)(F)F)cc(C(F)(F)F)c2)cc1)N1CCN(CCc2ccccc2)CC1", "values": [{"measurement": "EC50", "setting": "Leishmania donovani [1]", "result": "> 13", "unit": "µM"}, {"measurement": "IC50", "setting": "[19]", "result": "> 100", "unit": "µM"}]}
{"smiles": "Cc1cc(NC(=O)N2CCN(Cc3ccncc3)CC2)cc(C)c1C", "values": [{"measurement": "EC50", "setting": "Leishmania donovani [1]", "result": "> 50", "unit": "µM"}]}
{"smiles": "O=C(Nc1cc(F)cc(F)c1)N1CCN(Cc2ccncc2)CC1", "values": [{"measurement": "EC50", "setting": "Leishmania donovani [1]", "result": "> 100", "unit": "µM"}]}
{"smiles": "O=C(Nc1ccc(OCc2ccccc2)cc1)N1CCN(CCc2ccncc2)CC1", "values": [{"measurement": "EC50", "setting": "Leishmania donovani [1]", "result": "> 100", "unit": "µM"}]}
